# Residues, ends and D or L forms follow the SMILES beside them. *: point of attachment. Cbz = O=C(OCc1ccccc1)*
# Experiments:
# HEM-DP melanocytes = assay: Melanin content assay (melanin/protein); type: cell-based, human; conditions: for Pigmentation: 8-mer peptides 100 nM, every day for 9 days, vs vehicle
# Experimental: FIGS. 6A and 6B are bar graphs illustrating the effect of NRG-1 on the pigmentation of cultured human melanocytes. FIG. 6A) Lightly-pigmented (HEM-LP) and FIG. 6B) Darkly-pigmented (HEM-DP) melanocytes were treated with or without NRG-1 (50 ng/ml) for 1, 3, 5 or 9 days and proteins were extracted from each sample. After centrifugation at 10,000 g for 15 minutes, precipitates were analyzed for melanin content, and the supernatants were analyzed for protein content. Results are the average of three studies±SD; statistically significant differences are indicated.
# FIGS. 9A and 9B are digital images illustrating the effect of pan-ERBB inhibitors on NRG-1 action on human melanocytes and MelanoDerms. FIG. 9A) HEM-DP melanocytes were treated for 9 days with 50 ng/ml NRG-1 in the presence of C39 (0.5 μM) or CI-1033 (2 μM) or vehicle (DMSO) alone. The results are the averages of 3 independent studies±SD. FIG. 9B) Dark MelanoDerms were treated for 9 days with 50 ng/ml NRG-1 in the presence of C39 (0.5 μM) or CI-1033 (2 μM) or vehicle (DMSO) alone. L values shown are the average of 3 spots measured in the center of each Melanoderm.
# Melanin contents were determined by dissolving cell pellets overnight at room temperature in 200 μl 1 N NaOH, and melanin concentrations were quantitated by absorbance at 405 nm in a SpectraMax 250 ELISA reader (Molecular Devices) using a standard curve generated from synthetic melanin (Sigma-Aldrich, St. Louis, Mo.). Melanin content is expressed as μg melanin per μg protein. Each study was repeated at least three times.
# The effects of NRG-1 on the pigmentation of human melanocytes were also examined. […] However, on day 9, when the cells had reached confluence, the pigmentation level of NRG-1-treated HEM-LP melanocytes was about 35% higher than the control (FIG. 6A).
# The EGF domain of NRG-1 can activate the NRG-1 receptors. Two exemplary EGF domains of NRG-1 were aligned (SEQ ID NOs: 9 and 10) and 5 different […] peptides within these two sequences were designed (FIG. 12). Darkly-pigmented human epidermal melanocytes (HEM-DP) were treated with each of the […] peptides (100 nM) or the commercially available rhNRG-1 (6.25 nM) or the vehicle only (0.1% BSA in PBS) every other day for 7 days.
# In particular, HEM-DP were treated with each of the 8-mer peptides (WC-6, […], amino acids 3-10 of SEQ ID NO: 10; WC-7, […], amino acids 8-15 of SEQ ID NO: 10; WC-8, […], amino acids 12-19 of SEQ ID NO: 10; WC-9, […], amino acids 16-23 of SEQ ID NO: 10; WC-10, […], amino acids 20-27 of SEQ ID NO: 10; 100 nM) or the full length EGF domain of NRG-1 (WC-11, SEQ ID NO: 10, 100 nM) or the commercially available rhNRG-1 (SEQ ID NO: 11, 6.25 nM) or vehicle only (0.1% BSA in PBS) every day for 9 days.
# MelanoDerm Skin Model = assay: Melanogenesis in MelanoDerm skin model, L-[14C]tyrosine assay; type: cell-based, human; conditions: 30 μM lipoic acid, positive control, means ± SEM, Control 100%
# From the text: Fibroblasts regulate the distinctive pigmented and thick morphology of skin on the palms and soles compared to the remainder of the body via a factor they secrete termed DKK1. […] [table]
# ERBB2 = ERBB2 protein level by western blotting in melanocytes; type: cell-based, human; conditions: HEM-LP and HEM-DP, NRG-1 50 ng/ml together with MG132 120 nM
# Experimental: FIGS. 7A and 7B are digital images illustrating expression of ERBBs after NRG-1 treatment. FIG. 7A) HEM-LP and HEM-DP melanocytes were treated with or without NRG-1 (50 ng/ml) for 5 days, and levels of ERBB2, ERBB3 or ERBB4 were detected by western blotting. Results shown are representative of three studies. FIG. 7B) Expression of ERBB2 was examined in HEM-LP and in HEM-DP melanocytes after 1 or 9 days or treatment with NRG-1 compared to vehicle-treated controls; the results are representative of two independent studies.
# FIGS. 8A and 8B are digital images illustrating the mechanism of ERBB2 abrogation after NRG-1 treatment. FIG. 8A) ERBB2 mRNA levels in HEM-LP and in HEM-DP melanocytes were detected by RT-PCR after treatment with or without NRG-1 (50 ng/ml) for 1 day. FIG. 8B) MG132 (120 nM) was added to the melanocyte culture medium to inhibit proteasomal degradation during treatment of HEM-LP and HEM-DP melanocytes with or without NRG-1 (50 ng/ml). Proteins were extracted for each sample, and ERBB2 levels were detected by western blotting. Results are representative of three studies.
# Fibroblast cultures in 100-mm dishes were solubilized in appropriate volumes of M-PER mammalian protein extraction reagent (Pierce Biotechnology, Rockford, Ill.) containing a Protease Inhibitor mixture (Roche, Mannheim, Germany) and phosphatase inhibitors. The protein concentration of each extract was measured using a BCA protein assay kit (Pierce, Rockford, Ill.). Cell extracts (20 μg) were separated on 8-16% gradient SDS polyacrylamide gels (Invitrogen, Carlsbad, Calif.), after which proteins were transferred to PVDF membranes (Invitrogen, Carlsbad, Calif.). Membranes were blocked for 1 hour in PBS or Tris buffered saline (TBS) containing 0.1% Tween 20 and 5% (w/v) nonfat dry milk powder and were incubated overnight at 4° C. with the primary antibody in PBS containing 0.1% Tween 20 and 2.5% (w/v) nonfat dry milk powder or in 0.1% Tween-TBS with 5% BSA, depending on the antibody. The following primary antibodies were used: anti-human DKK-1 (0.2 μg/ml), anti-human DKK-3 (0.1 μg/ml), anti-human bFGF (0.1 μg/ml), anti-human SCF (0.1 μg/ml), anti-human mouse monoclonal ERBB3 (1 μg/ml) and anti-human mouse monoclonal ERBB4 (2 μg/ml) antibodies from R&D Systems, neuregulin-1α/β1/2 (C-20) (1:500) and GAPDH (FL-335) (1:10,000) antibodies from Santa Cruz Biotechnology, ERBB2 rabbit monoclonal (1:1000) and phospho-Akt (Ser473) (1:1000) antibodies from Cell Signaling Technology. Membranes were then incubated with an HRP-linked anti-rabbit antibody (GE Healthcare) at 1:10,000 dilution or with an anti-goat antibody (DAKO) at 1:2,000 dilution at room temperature for 1 hour. Antigen-antibody complexes were detected using an ECL-plus Western blotting detection system (GE Healthcare). […]
# [1] = system: MelanoDerm 3-D reconstructed human skin; assay: Pigmentation of 3-D reconstructed skin (MelanoDerm), L value and microscopy; type: cell-based; conditions: dark MelanoDerms, 9 days, NRG-1 50 ng/ml with C39 0.5 μM or CI-1033 2 μM, vs control
# Experimental: Light, Medium, and Dark human epidermal equivalents (MelanoDerm®) were purchased from MatTek Corp. (Ashland, Mass.). MelanoDerms were grown at the air/liquid interface of the maintenance medium MEL-LLMM (MatTek Corp.), and the culture medium was renewed every 2 days. Where noted, MelanoDerms were treated for 9 days with 50 ng/ml NRG-1 (rhNRG-1-β1, R&D Systems, Minneapolis, Minn.) prepared in phosphate-buffered saline (PBS) with 0.1% bovine serum albumin (BSA) and MelanoDerm maintenance medium. The same concentrations of PBS and BSA were used for mock-treated controls.
# For the studies where the MelanoDerms were treated with NRG-1 and/or various pan-ERBB inhibitors, Dark MelanoDerms were first incubated with a pan-ERBB inhibitor (0.5 μM Compound 39, EMD Chemicals, Gibbistown, N.J. or 2 μM CI-1033, Selleck Chemicals LLC, US) for 30 minutes or with vehicle (DMSO) only before treatment with 50 ng/ml NRG-1; identical amounts of DMSO (0.02%) were added to all samples. Treatment was renewed every 2 days in fresh medium and was continued for 9 days.
# Three dimensional (3-D) reconstructed human skin models (termed MelanoDerms) were used to test the effects of NRG-1 on skin pigmentation. Three types of MelanoDerm, ‘light’ ([…]), ‘medium’ ([…]) and ‘dark’ ([…]), were used to compare the effects of NRG-1 on those three types of skin. In preliminary studies to optimize the concentration of NRG-1 (from 10 to 200 ng/ml were tested, FIG. 10), 50 ng/ml was chosen which was consistent with concentrations of NRG-1 used for other cell types by other groups. NRG-1 was added to the MelanoDerm media at 50 ng/ml and the medium was replenished every 2 days. On day 9, the MelanoDerms treated with NRG-1 were compared to controls treated only with vehicle. Pigmentation of the skin was assessed using the L value, higher L values indicating lighter colors. […] It should be noted that relatively small changes in ΔL can represent relatively large changes in visible skin color. For example, the mean L value of White/Caucasian skin is 67, that of Asians, Pacific-Islanders is 65, that of Hispanic/Latinos is 64, and that of American Indian/Alaska Native is 62. […] In the vehicle-treated control MelanoDerms, melanin pigment was more evenly distributed throughout the entire epidermis and no visible melanin accumulation was observed around melanocytes (FIG. 3B). […] Therefore, NRG-1 leads to visible increases in pigmentation in the MelanoDerms which was greater as the skin had more constitutive pigmentation.
molecule,measurement,setting,value
"WC-10: 8-mer peptide LCKCPNEF, amino acids 20-27 of SEQ ID NO: 10",Pigmentation,HEM-DP melanocytes,statistically significant increases of pigmentation
"O=C(O)CCCC[C@@H]1CCSS1 (racemic) [Lipoic acid, lipoic acid]",Melanogenesis,MelanoDerm Skin Model,2 ± 2%
"CC(C)C[C@@H](C=O)NC(=O)[C@H](CC(C)C)NC(=O)[C@H](CC(C)C)NC(=O)OCc1ccccc1 [MG132, reference compound] (Cbz-Leu-Leu-Leu-aldehyde)",Level of ERBB2 protein,ERBB2,returned to the control level
WC-03: 16-mer NRG-1 peptide including amino acids 8-23 of SEQ ID NO: 9 (FMVKDLSNPSRYLCKC),Pigmentation (melanin) compared to control,"HEM-DP melanocytes; 16-mer peptides 100 nM, every other day for 7 days, n=4",highest increase in pigmentation
"C=CC(=O)Nc1cc2c(Nc3ccc(F)c(Cl)c3)ncnc2cc1OCCCN1CCOCC1 [CI-1033, reference compound]","Pigmentation of MelanoDerms, NRG-1 in the presence of ERBB inhibitor",[1],did not increase the pigmentation
same,"Melanin content, inhibitor alone","HEM-DP melanocytes; 9 days, C39 0.5 μM or CI-1033 2 μM alone",did not affect
same,"Melanin content, NRG-1 in the presence of ERBB inhibitor","HEM-DP melanocytes; 9 days, NRG-1 50 ng/ml with C39 0.5 μM or CI-1033 2 μM",remained at the same level as the control
"WC-9: 8-mer peptide PSRYLCKC, amino acids 16-23 of SEQ ID NO: 10",Pigmentation,HEM-DP melanocytes,statistically significant increases of pigmentation

# From patent US9168297B2, “Regulation of skin pigmentation by neuregulin-1 (NRG-1)” (The United States of America, as Represented by the …, priority 2010, dated 2015)
